Test results: PubChem BioAssay AID2060612 (Molecular Pharmacology Branch, DTP, NCI, 2025)
“And” between values parts separate entries of the source, which are not always exact repeats. Identical values can stand only once.

Tested on: 565232-114-T-J1-PDC complex spheroid viability
Assay: Anticancer human tumor 565232-114-T-J1-PDC patient-derived bladder carcinoma cell line growth inhibition [CLK]
Details: for viability, T/C: stronger effect = lower value
Procedure, shortened: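 Patient-derived tumor cells grown as complex spheroids with HUVEC endothelial cells and mesenchymal stem cells, treated with drug combinations. Concentrations descend in half-log steps from near clinical Cmax, or from 10 microM if Cmax unknown.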

[1] = curve of first compound, second compound 0.0316 µM
[2] = curve of first compound, second compound 0.1 µM
[3] = curve of first compound, second compound 0.316 µM
[4] = curve of first compound, second compound 1 µM
[5] = curve of first compound, second compound 3.16 µM
[6] = curve of first compound, second compound 10 µM
[7] = second compound 0.0316 µM, first compound 0.0316 µM
[8] = second compound 0.0316 µM, first compound 0.1 µM
[9] = second compound 0.1 µM, first compound 0.0316 µM
[10] = second compound 0.1 µM, first compound 0.1 µM
[11] = second compound 0.316 µM, first compound 0.0316 µM
[12] = second compound 0.316 µM, first compound 0.1 µM
[13] = second compound 1 µM, first compound 0.0316 µM
[14] = second compound 1 µM, first compound 0.1 µM
[15] = second compound 3.16 µM, first compound 0.0316 µM
[16] = second compound 3.16 µM, first compound 0.1 µM
[17] = second compound 10 µM, first compound 0.0316 µM
[18] = second compound 10 µM, first compound 0.1 µM
[19] = second compound 0.0316 µM, first compound 0.316 µM
[20] = second compound 0.0316 µM, first compound 1 µM
[21] = second compound 0.0316 µM, first compound 3.16 µM
[22] = second compound 0.0316 µM, first compound 10 µM
[23] = second compound 0.1 µM, first compound 0.316 µM
[24] = second compound 0.1 µM, first compound 1 µM
[25] = second compound 0.1 µM, first compound 3.16 µM
[26] = second compound 0.1 µM, first compound 10 µM
[27] = second compound 0.316 µM, first compound 0.316 µM
[28] = second compound 0.316 µM, first compound 1 µM
[29] = second compound 0.316 µM, first compound 3.16 µM
[30] = second compound 0.316 µM, first compound 10 µM
[31] = second compound 1 µM, first compound 0.316 µM
[32] = second compound 1 µM, first compound 1 µM
[33] = second compound 1 µM, first compound 3.16 µM
[34] = second compound 1 µM, first compound 10 µM
[35] = second compound 3.16 µM, first compound 0.316 µM
[36] = second compound 3.16 µM, first compound 1 µM
[37] = second compound 3.16 µM, first compound 3.16 µM
[38] = second compound 3.16 µM, first compound 10 µM
[39] = second compound 10 µM, first compound 0.316 µM
[40] = second compound 10 µM, first compound 1 µM
[41] = second compound 10 µM, first compound 3.16 µM
[42] = second compound 10 µM, first compound 10 µM
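Further: spheroids exposed to compounds for 7 days before readout.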
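Wherever viability, T/C is given: 100% = DMSO vehicle wells with luminescence normalized to vehicle control.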

Cn1ncnc1[C@H]1c2n[nH]c(=O)c3cc(F)cc(c23)N[C@@H]1c1ccc(F)cc1 + CNC(=O)c1ccc(Nc2nc(OC3CCCC3)c3c(-c4ccc5nc(C)oc5c4)c[nH]c3n2)c(OC)c1
IC50 [1]: > 100 nM
IC50 [2]: < 0.316 nM
IC50 [3]: < 0.316 nM
IC50 [4]: < 0.316 nM
IC50 [5]: < 0.316 nM
IC50 [6]: < 0.316 nM
viability, T/C (second compound 0.0316 µM, first compound 0.000316 µM): 107%
viability, T/C (second compound 0.0316 µM, first compound 0.001 µM): 81.8%
viability, T/C (second compound 0.0316 µM, first compound 0.00316 µM): 94.9%
viability, T/C (second compound 0.0316 µM, first compound 0.01 µM): 95%
viability, T/C [7]: 84.8%
viability, T/C [8]: 53.2%
viability, T/C (second compound 0.1 µM, first compound 0.000316 µM): 50%
viability, T/C (second compound 0.1 µM, first compound 0.001 µM): 44.4%
viability, T/C (second compound 0.1 µM, first compound 0.00316 µM): 53.3%
viability, T/C (second compound 0.1 µM, first compound 0.01 µM): 43.6%
viability, T/C [9]: 34.7%
viability, T/C [10]: 23.3%
viability, T/C (second compound 0.316 µM, first compound 0.000316 µM): 31.4%
viability, T/C (second compound 0.316 µM, first compound 0.001 µM): 29.8%
viability, T/C (second compound 0.316 µM, first compound 0.00316 µM): 30.4%
viability, T/C (second compound 0.316 µM, first compound 0.01 µM): 26.4%
viability, T/C [11]: 25.7%
viability, T/C [12]: 15.4%
viability, T/C (second compound 1 µM, first compound 0.000316 µM): 21.9%
viability, T/C (second compound 1 µM, first compound 0.001 µM): 22.3%
viability, T/C (second compound 1 µM, first compound 0.00316 µM): 20%
viability, T/C (second compound 1 µM, first compound 0.01 µM): 16.9%
viability, T/C [13]: 22.2%
viability, T/C [14]: 15.7%
viability, T/C (second compound 3.16 µM, first compound 0.000316 µM): 12.3%
viability, T/C (second compound 3.16 µM, first compound 0.001 µM): 20.6%
viability, T/C (second compound 3.16 µM, first compound 0.00316 µM): 18.7%
viability, T/C (second compound 3.16 µM, first compound 0.01 µM): 16.4%
viability, T/C [15]: 20.2%
viability, T/C [16]: 12.4%
viability, T/C (second compound 10 µM, first compound 0.000316 µM): 20.4%
viability, T/C (second compound 10 µM, first compound 0.001 µM): 16.1%
viability, T/C (second compound 10 µM, first compound 0.00316 µM): 20.3%
viability, T/C (second compound 10 µM, first compound 0.01 µM): 19.5%
viability, T/C [17]: 17.8%
viability, T/C [18]: 11.4%

CC1(C)CCC(CN2CCN(c3ccc(C(=O)NS(=O)(=O)c4ccc(NCC5CCOCC5)c([N+](=O)[O-])c4)c(Oc4cnc5[nH]ccc5c4)c3)CC2)=C(c2ccc(Cl)cc2)C1 + CN1CCN(c2cc(C(=O)Nc3cc4cc(-c5cnn(C)c5)ccc4cn3)ccn2)CC1
IC50 [1]: 9100 nM
IC50 [2]: 8010 nM
IC50 [3]: < 31.6 nM
IC50 [4]: < 31.6 nM
IC50 [5]: < 31.6 nM
IC50 [6]: < 31.6 nM
viability, T/C [7]: 104%
viability, T/C [8]: 89%
viability, T/C [19]: 98.6%
viability, T/C [20]: 95.9%
viability, T/C [21]: 79.5%
viability, T/C [22]: 47.4%
viability, T/C [9]: 88.2%
viability, T/C [10]: 79.3%
viability, T/C [23]: 95.1%
viability, T/C [24]: 119%
viability, T/C [25]: 82.2%
viability, T/C [26]: 42.3%
viability, T/C [11]: 13.7%
viability, T/C [12]: 18.3%
viability, T/C [27]: 18.5%
viability, T/C [28]: 17.6%
viability, T/C [29]: 22.8%
viability, T/C [30]: 11.4%
viability, T/C [13]: 1.1%
viability, T/C [14]: 0.27%
viability, T/C [31]: 0.22%
viability, T/C [32]: 0.2%
viability, T/C [33]: 0.21%
viability, T/C [34]: 0.31%
viability, T/C [15]: 0.35%
viability, T/C [16]: 2.16%
viability, T/C [35]: 1.93%
viability, T/C [36]: 0.23%
viability, T/C [37]: 1.8%
viability, T/C [38]: 1.49%
viability, T/C [17]: 0.16%
viability, T/C [18]: 1.55%
viability, T/C [39]: 1.55%
viability, T/C [40]: 0.15%
viability, T/C [41]: 0.15%
viability, T/C [42]: 0.8%

CC1COCCN1c1cc(C2(S(C)(=N)=O)CC2)nc(-c2ccnc3[nH]ccc23)n1 (stereo not drawn)
viability, T/C (compound 0.0316 µM): 83.5% and 105%
viability, T/C (compound 0.1 µM): 88.9% and 90.1%
viability, T/C (compound 0.316 µM): 101% and 94.8%
viability, T/C (compound 1 µM): 88% and 99.1%
viability, T/C (compound 3.16 µM): 76.2% and 99.8%
viability, T/C (compound 10 µM): 63.5% and 25.8%
IC50 (curve of compound): > 10000 nM and 6780 nM

Nc1ccn(C2OC(CO)C(O)C2(F)F)c(=O)n1 (stereo not drawn) + CN1CCN(c2cc(C(=O)Nc3cc4cc(-c5cnn(C)c5)ccc4cn3)ccn2)CC1
IC50 [1]: 192 nM
IC50 [2]: 242 nM
IC50 [3]: < 31.6 nM
IC50 [4]: < 31.6 nM
IC50 [5]: < 31.6 nM
IC50 [6]: < 31.6 nM
viability, T/C [7]: 93.3%
viability, T/C [8]: 62.8%
viability, T/C [19]: 40.7%
viability, T/C [20]: 33.8%
viability, T/C [21]: 38%
viability, T/C [22]: 38.3%
viability, T/C [9]: 112%
viability, T/C [10]: 74.6%
viability, T/C [23]: 42.3%
viability, T/C [24]: 32.8%
viability, T/C [25]: 30.2%
viability, T/C [26]: 29.7%
viability, T/C [11]: 18%
viability, T/C [12]: 21.2%
viability, T/C [27]: 20.4%
viability, T/C [28]: 19%
viability, T/C [29]: 16.7%
viability, T/C [30]: 17.5%
viability, T/C [13]: 0.16%
viability, T/C [14]: 0.19%
viability, T/C [31]: 0.2%
viability, T/C [32]: 0.11%
viability, T/C [33]: 1.16%
viability, T/C [34]: 1.27%
viability, T/C [15]: 0.18%
viability, T/C [16]: 2.52%
viability, T/C [35]: 0.18%
viability, T/C [36]: 0.15%
viability, T/C [37]: 0.92%
viability, T/C [38]: 1.45%
viability, T/C [17]: 0.18%
viability, T/C [18]: 1.54%
viability, T/C [39]: 0.18%
viability, T/C [40]: 0.17%
viability, T/C [41]: 2.1%
viability, T/C [42]: 4.24%
